Values of other authors as cited in US20260014099A1, “SELF-PRESERVING TOPICAL PHARMACEUTICAL COMPOSITIONS COMPRISING DIETHYLENE GLYCOL MONOETHYL ETHER” (priority 2022, published 2026).

Row | Compound | Water Solubility
1 | ivermectin | 4 mg/L
2 | NC(N)=O [urea] | 1,190,000 mg/liter
